We go through ten compounds from ChEMBL document CHEMBL1131658, “Potent cyclic urea HIV protease inhibitors with 3-aminoindazole P2/P2' groups” (Bioorg Med Chem Lett, 1998).

The target in data set [1] is Human immunodeficiency virus type 1 protease (Human immunodeficiency virus 1, UniProt Q72874). Put plainly: The compound was evaluated for inhibition of HIV protease.
The subject of a further data set is MT2. Put plainly: Compound was evaluated for accumulation of viral RNA transcripts three days after infection of MT-2 cells with HIV-1 RF. In kind it is functional. The settings on record: Homo sapiens, MT2, 72 h.
Data set [2] in a line: Ratio of -logKi with respect to inhibition was evaluated. In kind it is functional.
Data set [3] is described as follows: Maximum concentration of compound in rat was evaluated. Format: ADME, organism-based. The settings on record: in vivo.
Data set [4] is described as follows: Half life period was evaluated. In kind it is ADME.
Data set [5] in a line: Maximum concentration of compound in dog was evaluated. In kind it is ADME, organism-based, Canis lupus familiaris. The conditions noted are these: in vivo.
Data set [6] is described as follows: Percentage Bioavailability was evaluated. In kind it is ADME, organism-based. The conditions noted are these: in vivo; read-out: Bioavailabiility.

Regarding `O=C1N(Cc2ccc3[nH]c(O)nc3c2)[C@H](Cc2ccccc2)[C@H](O)[C@@H](O)[C@@H](Cc2ccccc2)N1Cc1ccc2[nH]c(O)nc2c1`, the inhibitory constant (Ki) in data set [1] is below 0.01 nM. The concentration for an effect of 90% (IC90) in the data set with MT2 is above 65000 nM.
`CCNc1[nH]nc2ccc(CN3C(=O)N(Cc4ccc5n[nH]c(NCC)c5c4)[C@H](Cc4ccccc4)[C@H](O)[C@@H](O)[C@H]3Cc3ccccc3)cc12`: in data set [1], the inhibition constant Ki is 0.041 nM. In data set [2], the Ratio worked out at 3.2. Besides, it took 65 nM to reach the 90% level in the data set on MT2 (IC90).
On the same counts, the results for `CNc1[nH]nc2ccc(CN3C(=O)N(Cc4ccc5n[nH]c(NC)c5c4)[C@H](Cc4ccccc4)[C@H](O)[C@@H](O)[C@H]3Cc3ccccc3)cc12` are 0.018 nM, 4.2 and 279 nM.
In the case of `O=C1N(Cc2ccc3[nH]nc(N4CCCC4)c3c2)[C@H](Cc2ccccc2)[C@H](O)[C@@H](O)[C@@H](Cc2ccccc2)N1Cc1ccc2[nH]nc(N3CCCC3)c2c1`, the affinity in data set [1], expressed as Ki, was 1.3 nM. The Ratio in data set [2] was 2. The same compound returned a concentration for an effect of 90% (IC90) in the data set on MT2 of 120 nM.
As to `O=C1N(Cc2ccc3[nH]nc(NCC4CC4)c3c2)[C@H](Cc2ccccc2)[C@H](O)[C@@H](O)[C@@H](Cc2ccccc2)N1Cc1ccc2[nH]nc(NCC3CC3)c2c1`, in data set [1], the affinity, expressed as Ki, was 0.34 nM. Moreover, the Ratio in data set [2] came to 2.1. This compound came in with a concentration for an effect of 90% (IC90) with MT2 of 38 nM.
In data set [1], `CC(C)Nc1[nH]nc2ccc(CN3C(=O)N(Cc4ccc5n[nH]c(NC(C)C)c5c4)[C@H](Cc4ccccc4)[C@H](O)[C@@H](O)[C@H]3Cc3ccccc3)cc12` had a Ki of 0.09 nM. For the same compound, the Ratio in data set [2] came to 2.4. In the data set with MT2, the IC90 worked out at 24 nM.
In the case of `CCCNc1[nH]nc2ccc(CN3C(=O)N(Cc4ccc5n[nH]c(NCCC)c5c4)[C@H](Cc4ccccc4)[C@H](O)[C@@H](O)[C@H]3Cc3ccccc3)cc12`, the affinity in data set [1] corresponds to a Ki of 0.23 nM. Moreover, the Ratio in data set [2] is 2.2. In the data set on MT2, the IC90 came out at 40 nM.
Turning to `Nc1[nH]nc2ccc(CN3C(=O)N(Cc4ccc5n[nH]c(N)c5c4)[C@H](Cc4ccccc4)[C@H](O)[C@@H](O)[C@H]3Cc3ccccc3)cc12`, the Ratio in data set [2] turned out to be 5.4. The IC90 in the data set on MT2 was 2760 nM.
Compound `Nc1n[nH]c2ccc(CN3C(=O)N(Cc4ccc5[nH]nc(N)c5c4)[C@H](Cc4ccccc4)[C@H](O)[C@@H](O)[C@H]3Cc3ccccc3)cc12` showed a Ki in data set [1] below 0.01 nM.
On to `O=C1N(Cc2ccc3[nH]ncc3c2)[C@H](Cc2ccccc2)[C@H](O)[C@@H](O)[C@@H](Cc2ccccc2)N1Cc1ccc2[nH]ncc2c1`, for which the Cmax was found to be 30 nM in data set [3] and 1000 nM in data set [5]. Also, the half-life in data set [4] was 2 h. For the same compound, the IC90 in the data set on MT2 was 8 nM. The bioavailability in data set [6] is 13%.

By Ki is commonly meant a measure of affinity in units of concentration, obtained from inhibition or displacement. Lower therefore signals higher affinity. The term IC90 denotes the concentration at which the effect reaches the 90% level. As usually defined, the Cmax is the highest concentration seen after dosing. In general, half-life refers to the time in which the quantity being followed falls by half. A higher half-life goes with slow decline.
